Source: patent publication US4485109A, “4-Aryl-4-piperidinecarbinols” (E. I. Du Pont de Nemours and Company, priority 1983, dated 1984)
Read-outs that look alike come from different tables or passages of the source.

Assays:
[1] = Anorexia test from CNS screen (milk consumption in fasted mice); format: in vivo; settings: Mus musculus, po, 0.5 h, fasted female mice, 0.5 h after dosing, 30 min milk access, ED50 estimated from quantal responses
Procedure: Female mice weighing 16-20 grams and fasted overnight for 17-21 h are used in these studies. At 0.5 h after administration of graded oral doses of compound prepared in aqueous Methocel® (methylcellulose, viscosity 100 CPS, grade MC, Dow Chemical Co.) and 2.8% Tween 80 and dosed at 0.1 mL per 10 grams of body weight, each mouse is transferred to an individual, clear, Lucite® compartment (13.3 cm×12.7 cm×12.7 cm) with a 0.64 cm×0.64 cm wire mesh floor. Five compartments are linearly arranged in each cage unit. Inside each compartment is a section of a black Lucite® bar (13 cm×1.2 cm×1.2 cm), in the top of which are ten spot depressions (0.8 cm diameter), each containing 0.05 mL of 50% sweetened condensed milk (Borden's Eagle Brand). 30 Minutes later the mice are returned to the "shoe-box" containers and the number of milk spots consumed by each mouse is counted. Fractions of spots consumed are also estimated and counted. Five mice […] per drug dose can drink a maximum of 50 spots (2.5 mL of milk). Nine or fewer spots consumed by 5 mice is considered to indicate anorexia. ED50 values are estimated based on the quantal responses obtained.

[2] = tested on: tetrabenazine-induced depression; experiment: Antagonism (prevention) of tetrabenazine-induced sedation and depression in mice, orally; format: in vivo, mice (Carworth CF1 S female); settings: Mus musculus, po, 1 h, tetrabenazine 32 mg/kg i.p. 30 min after compound
Excerpt: A standard procedure for detecting and comparing the antidepressant activity of the compounds of this invention, for which there is good correlation with human efficacy, is the prevention of tetrabenazine-induced sedation and depression in mice. (Everett, "The Dopa Response Potentiation Test and Its Use in Screening for Antidepressant Drugs", pp. 164-167 in Antidepressant Drugs [Proceedings of the First International Symposium], S. Garattini and M. N. G. Dukes (editors), 1967).
Groups of 10 Carworth CF1 S female mice, 18-21 g each, each fasted 1.5 h and were intubated with antagonist compounds at oral doses, such as 0, 1, 3, 9, 27 and 81 mg/kg in 0.20 mL of 1% Methocel® (methylcellulose).The mice were challenged 30 minutes later with tetrabenazine (as the methanesulfonate), 32 mg/kg intraperitoneally (dissolved in 0.20 mL 0.05% aqueous KCl at pH 2.0). One hour after administration of antagonist (30 minutes after administration of tetrabenazine) the mice were examined for signs of exploratory activity and ptosis (eye lid closure). Normal exploratory activity (relief from sedation) was recorded when a mouse, lifted by the tail from a group of 10 in a testing box and placed on a stainless steel testing box lid (12.5 inch (31.8 cm) by 8 inch (20.3 cm) with 0.33 inch mesh), either turned its head horizontally 30° in both directions or moved to the edge of the screen within 10 seconds after being placed on the screen. Relief from ptosis was recorded when, at exactly two seconds after placing the mouse facing the observer, lid closure was less than 50% in both eyes.

[3] = tested on: tetrabenazine-induced depression; experiment: as above; format: in vivo, mice (Carworth CF1 S female); settings: Mus musculus, po, footnote *: peak time values
[4] = read-out: ORAL ED50 for prevention of exploratory loss, mice, oral, at one hour post-drug
[5] = read-out: ORAL ED50 for prevention of ptosis, mice, oral, at one hour post-drug

SMILES: Cc1cccc(C2(C(C)(C)O)CCN(C)CC2)c1 [Example 10, 4-(3'-Tolyl)-α,α,1-trimethyl-4-piperidinemethanol]
- ED50 [1]: 20 mg/kg
- ED50 [2, 4]: 0.04 mg/kg
- ED50 [2, 5]: 0.04 mg/kg

SMILES: CCC(O)(CC)C1(c2cccc(Cl)c2)CCN(C)CC1 [Example 8, 4-(3'-Chlorophenyl)-α,α-diethyl-1-methyl-4-piperidinemethanol]
- ED50 [1]: 20 mg/kg
- ED50 [2, 4]: 0.29 mg/kg
- ED50 [2, 5]: 0.26 mg/kg

SMILES: CN1CCC(c2cccc(Cl)c2)(C(C)(C)O)CC1 [Example 6, 4-(3'-Chlorophenyl)-α,α,1-trimethyl-4-piperidinemethanol]
- ED50 [1]: 60 mg/kg
- ED50 [2, 4]: 0.04 mg/kg
- ED50 [2, 5]: 0.03 mg/kg

SMILES: COc1ccc2cc(C3(C(C)(C)O)CCN(C)CC3)ccc2c1 [Example 39, 4-(6'-Methoxy-2'-naphthyl)-α,α,1-trimethyl-4-piperidinemethanol]
- ED50 [1]: 60 mg/kg
- ED50 [2, 4]: 0.33 mg/kg
- ED50 [2, 5]: < 0.33 mg/kg

SMILES: COc1cccc(C2(C(C)(C)O)CCN(Cc3ccccc3)CC2)c1OC [Example 37, 4-(2',3'-Dimethoxyphenyl)-1-benzyl-α,α-dimethyl-4-piperidinemethanol]
- ED50 [1]: 60 mg/kg
- ED50 [2, 4]: > 81 mg/kg
- ED50 [2, 5]: 81 mg/kg

SMILES: CN1CCC(c2cccc(C(F)(F)F)c2)(C(C)(C)O)CC1 [Example 2, 4-(3'-Trifluoromethylphenyl)-α,α,1-trimethyl-4-piperidinemethanol]
- ED50 [1]: 60 mg/kg
- ED50 [2, 4]: 0.01 mg/kg
- ED50 [2, 5]: 0.016 mg/kg

SMILES: CN1CCC(c2ccc(Oc3ccccc3)cc2)(C(C)(C)O)CC1 [Example 32, 4-(4'-Phenoxyphenyl)-α,α,1-trimethyl-4-piperidinemethanol]
- ED50 [1]: 60 mg/kg
- ED50 [2, 4]: > 81 mg/kg
- ED50 [2, 5]: 81 mg/kg

SMILES: COc1cccc(C2(C(C)(C)O)CCN(C)CC2)c1 [Example 16, 4-(3'-Methoxyphenyl)-α,α,1-trimethyl-4-piperidinemethanol]
- ED50 [1]: 60 mg/kg
- ED50 ([3]; read-out: ORAL ED50 for prevention of exploratory loss (peak time value), mice, oral): 0.12 mg/kg
- ED50 ([3]; read-out: ORAL ED50 for prevention of ptosis (peak time value), mice, oral): 0.077 mg/kg

SMILES: CCC(C)(O)C1(c2cccc(C(F)(F)F)c2)CCN(C)CC1 (stereo not drawn) [Example 31, 4-(3'-Trifluoromethylphenyl)-α,1-dimethyl-α-ethyl-4-piperidinemethanol]
- ED50 [1]: 20 mg/kg
- ED50 [2, 4]: 0.064 mg/kg
- ED50 [2, 5]: 0.056 mg/kg

SMILES: CCN1CCC(c2cccc(C(F)(F)F)c2)(C(C)(C)O)CC1 [Example 41, 4-(3'-Trifluoromethylphenyl)-α,α-dimethyl-1-ethyl-4-piperidinemethanol]
- ED50 [1]: 60 mg/kg
- ED50 [2, 4]: 0.73 mg/kg
- ED50 [2, 5]: 0.46 mg/kg

SMILES: CN1CCC(c2cccc(F)c2)(C(C)(C)O)CC1 [Example 4, 4-(3'-Fluorophenyl)-α,α,1-trimethyl-4-piperidinemethanol]
- ED50 [1]: 60 mg/kg
- ED50 [2, 4]: 0.2 mg/kg
- ED50 [2, 5]: 0.12 mg/kg

SMILES: CN1CCC(c2ccc(Cl)cc2)(C(C)(C)O)CC1 [Example 7, 4-(4'-Chlorophenyl)-α,α,1-trimethyl-4-piperidinemethanol]
- ED50 [1]: 20 mg/kg
- ED50 [2, 4]: 0.57 mg/kg
- ED50 [2, 5]: 0.33 mg/kg

SMILES: CN1CCC(c2cccc(C(F)(F)F)c2)(C2(O)CCCC2)CC1 [Example 30, 1-[1'-Methyl-4'-(3"-trifluoromethylphenyl)-4'-piperidinyl]cyclopentanol]
- ED50 [1]: 60 mg/kg
- ED50 [2, 4]: 0.17 mg/kg
- ED50 [2, 5]: 0.084 mg/kg

SMILES: CCC(C)(O)C1(c2cccc(OC)c2)CCN(C)CC1 (stereo not drawn) [Example 17, 4-(3'-Methoxyphenyl)-α,1-dimethyl-α-ethyl-4-piperidinemethanol]
- ED50 [1]: 60 mg/kg
- ED50 [2, 4]: 0.1 mg/kg
- ED50 [2, 5]: 0.11 mg/kg
